From article PMC5684318, “Heterogeneity in the Drosophila gustatory receptor complexes that detect aversive compounds” (Nature Communications, 2017)

target: T1, GR22e/GR32a/GR66a (Drosophila melanogaster, UniProt P58953+Q9VKJ7+Q9VSH2); experiment: whole-cell patch clamp of S2 cells; tip recording of L-type sensilla misexpressing the receptors; type: cell-based; details: agonist; S2 cells pH 7.4, room temperature, voltage ramp -80 to +80 mV; sensilla 1 mM
T1 construct: full-length receptors co-expressed in Drosophila S2 cells (with EGFP) and in sweet GRNs via UAS/Gr64f-GAL4
T1 sequence (P58953 1-389): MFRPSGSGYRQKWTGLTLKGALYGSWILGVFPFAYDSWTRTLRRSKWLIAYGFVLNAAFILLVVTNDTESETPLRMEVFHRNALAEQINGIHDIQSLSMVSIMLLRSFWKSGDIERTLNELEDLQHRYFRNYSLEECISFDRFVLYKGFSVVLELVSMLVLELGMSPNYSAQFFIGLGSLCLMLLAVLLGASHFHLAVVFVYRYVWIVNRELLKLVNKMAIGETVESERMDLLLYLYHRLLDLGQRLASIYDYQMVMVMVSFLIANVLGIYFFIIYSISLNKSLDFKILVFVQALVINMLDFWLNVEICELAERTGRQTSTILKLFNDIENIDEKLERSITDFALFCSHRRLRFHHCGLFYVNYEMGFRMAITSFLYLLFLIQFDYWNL
T1 sequence (Q9VKJ7 1-461): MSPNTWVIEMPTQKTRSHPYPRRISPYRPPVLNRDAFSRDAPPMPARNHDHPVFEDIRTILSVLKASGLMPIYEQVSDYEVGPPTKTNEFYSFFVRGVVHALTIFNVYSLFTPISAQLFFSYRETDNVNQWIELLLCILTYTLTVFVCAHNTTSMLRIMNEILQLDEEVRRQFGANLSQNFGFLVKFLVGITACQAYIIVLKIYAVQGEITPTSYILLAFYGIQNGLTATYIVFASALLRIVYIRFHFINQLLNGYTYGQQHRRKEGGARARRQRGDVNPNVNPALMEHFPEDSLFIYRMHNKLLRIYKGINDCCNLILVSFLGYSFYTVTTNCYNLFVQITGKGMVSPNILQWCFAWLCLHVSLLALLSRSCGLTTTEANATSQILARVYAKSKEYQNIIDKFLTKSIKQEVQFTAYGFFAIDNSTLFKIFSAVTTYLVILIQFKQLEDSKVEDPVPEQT
T1 sequence (Q9VSH2 1-527): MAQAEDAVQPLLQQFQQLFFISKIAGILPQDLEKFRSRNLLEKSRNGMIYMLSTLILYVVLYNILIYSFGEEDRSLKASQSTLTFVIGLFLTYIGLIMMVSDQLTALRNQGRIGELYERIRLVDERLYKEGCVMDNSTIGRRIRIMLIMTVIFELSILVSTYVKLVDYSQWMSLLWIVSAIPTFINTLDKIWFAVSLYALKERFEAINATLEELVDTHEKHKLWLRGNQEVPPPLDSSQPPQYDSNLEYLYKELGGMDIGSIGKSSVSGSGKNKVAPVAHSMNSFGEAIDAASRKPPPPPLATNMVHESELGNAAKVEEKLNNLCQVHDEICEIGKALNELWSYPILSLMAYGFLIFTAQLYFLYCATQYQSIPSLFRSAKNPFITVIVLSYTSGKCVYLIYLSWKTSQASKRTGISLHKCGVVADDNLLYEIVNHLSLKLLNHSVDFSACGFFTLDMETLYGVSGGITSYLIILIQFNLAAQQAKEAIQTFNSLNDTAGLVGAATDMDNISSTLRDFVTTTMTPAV

**Q.** How did the “whole-cell patch clamp of S2 cells; tip recording of L-type sensilla misexpressi” value (“whole-cell patch clamp of S2 cells” for short) turn out when `COc1ccc2cc3[n+](cc2c1OC)CCc1cc2c(cc1-3)OCO2` [BER, berberine] was run?
**A.** Its value is “both Gr combinations confer sensitivity to LOB, BER, and DEN on S2 cells”.

**Q.** Which “whole-cell patch clamp of S2 cells” value does the source give for `O=C1C[C@@H]2OCC=C3CN4CC[C@]56c7ccccc7N1[C@H]5[C@H]2[C@H]3C[C@H]46` [STR, strychnine] here?
**A.** Its value is “GR22e/GR32a/GR66a-expressing S2 cells also respond to STR”.

**Q.** How did the “whole-cell patch clamp of S2 cells” value turn out when `CC[N+](CC)(CC(=O)Nc1c(C)cccc1C)Cc1ccccc1` [DEN, denatonium] was run?
**A.** The value was “both Gr combinations confer sensitivity to LOB, BER, and DEN on S2 cells”.

**Q.** With `CN1[C@@H](CC(=O)c2ccccc2)CCC[C@H]1C[C@H](O)c1ccccc1` [LOB, lobeline] as the compound, how does the “whole-cell patch clamp of S2 cells” value read?
**A.** Its value is “both Gr combinations confer sensitivity to LOB, BER, and DEN on S2 cells”.
